One series deals with T1, Aminopeptidase N (Sus scrofa, UniProt P15145).
T1 sequence (P15145 whole entry): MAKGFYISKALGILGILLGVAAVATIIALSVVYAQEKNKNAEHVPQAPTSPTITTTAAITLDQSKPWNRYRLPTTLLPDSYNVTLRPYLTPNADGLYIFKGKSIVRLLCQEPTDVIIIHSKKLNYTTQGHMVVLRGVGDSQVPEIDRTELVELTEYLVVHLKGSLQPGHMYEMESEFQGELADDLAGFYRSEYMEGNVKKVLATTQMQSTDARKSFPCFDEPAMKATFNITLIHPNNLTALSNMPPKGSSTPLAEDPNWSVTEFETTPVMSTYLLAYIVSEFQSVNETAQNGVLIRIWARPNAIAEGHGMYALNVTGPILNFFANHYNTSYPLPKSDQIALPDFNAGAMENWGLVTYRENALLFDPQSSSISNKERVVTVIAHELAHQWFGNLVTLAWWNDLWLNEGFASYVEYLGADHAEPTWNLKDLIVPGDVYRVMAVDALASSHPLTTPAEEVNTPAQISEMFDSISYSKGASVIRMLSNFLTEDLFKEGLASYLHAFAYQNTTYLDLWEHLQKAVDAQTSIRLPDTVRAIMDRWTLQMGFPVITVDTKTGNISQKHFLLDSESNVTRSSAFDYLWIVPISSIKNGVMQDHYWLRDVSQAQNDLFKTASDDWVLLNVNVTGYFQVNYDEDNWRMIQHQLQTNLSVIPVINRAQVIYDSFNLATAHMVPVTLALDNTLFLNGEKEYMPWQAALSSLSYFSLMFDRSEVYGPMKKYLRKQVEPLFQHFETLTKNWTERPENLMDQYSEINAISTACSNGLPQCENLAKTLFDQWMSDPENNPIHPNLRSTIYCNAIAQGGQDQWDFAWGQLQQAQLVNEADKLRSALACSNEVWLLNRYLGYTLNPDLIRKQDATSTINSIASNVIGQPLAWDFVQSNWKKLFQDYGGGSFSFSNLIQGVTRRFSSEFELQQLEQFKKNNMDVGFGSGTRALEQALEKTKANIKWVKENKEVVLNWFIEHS
Kind of series: Inhibition of porcine kidney CD13 using L-leucine-p-nitroanilide as substrate incubated for 30 mins by microplate reader analysis.

For a further series, the target named is Histone deacetylase 3 (Homo sapiens, UniProt O15379). Briefly: Inhibition of human HDAC3 using Boc-Lys (acetyl)-AMC as substrate incubated for 1 hr followed by substrate addition and further incubated for 2 hrs by fluorescence assay.
In the next series the target is T2, Histone deacetylase 8 (Homo sapiens, UniProt Q9BY41).
T2 sequence (Q9BY41 whole entry): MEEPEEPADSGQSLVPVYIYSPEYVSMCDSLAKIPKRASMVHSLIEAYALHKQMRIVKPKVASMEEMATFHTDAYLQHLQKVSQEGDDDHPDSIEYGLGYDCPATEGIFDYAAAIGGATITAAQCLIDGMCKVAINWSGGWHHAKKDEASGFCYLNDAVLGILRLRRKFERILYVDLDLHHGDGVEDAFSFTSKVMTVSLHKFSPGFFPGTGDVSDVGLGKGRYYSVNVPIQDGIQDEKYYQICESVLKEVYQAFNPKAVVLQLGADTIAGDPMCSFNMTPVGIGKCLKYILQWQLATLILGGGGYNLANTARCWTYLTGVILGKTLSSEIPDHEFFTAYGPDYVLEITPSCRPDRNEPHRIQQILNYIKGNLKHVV
Kind of series: Inhibition of human HDAC8 using Boc-Lys (tri-fluoroacetyl)-AMC as substrate incubated for 1 hr followed by substrate addition and further incubated for 2 hrs by fluorescence assay.

For the next series, the target named is Histone deacetylase 9 (Homo sapiens, UniProt Q9UKV0). Kind of series: Inhibition of human HDAC9 using Boc-Lys (tri-fluoroacetyl)-AMC as substrate incubated for 1 hr followed by substrate addition and further incubated for 2 hrs by fluorescence assay.
Series [1] addresses T3, Polyamine deacetylase HDAC10 (Homo sapiens, UniProt Q969S8).
T3 sequence (Q969S8 whole entry): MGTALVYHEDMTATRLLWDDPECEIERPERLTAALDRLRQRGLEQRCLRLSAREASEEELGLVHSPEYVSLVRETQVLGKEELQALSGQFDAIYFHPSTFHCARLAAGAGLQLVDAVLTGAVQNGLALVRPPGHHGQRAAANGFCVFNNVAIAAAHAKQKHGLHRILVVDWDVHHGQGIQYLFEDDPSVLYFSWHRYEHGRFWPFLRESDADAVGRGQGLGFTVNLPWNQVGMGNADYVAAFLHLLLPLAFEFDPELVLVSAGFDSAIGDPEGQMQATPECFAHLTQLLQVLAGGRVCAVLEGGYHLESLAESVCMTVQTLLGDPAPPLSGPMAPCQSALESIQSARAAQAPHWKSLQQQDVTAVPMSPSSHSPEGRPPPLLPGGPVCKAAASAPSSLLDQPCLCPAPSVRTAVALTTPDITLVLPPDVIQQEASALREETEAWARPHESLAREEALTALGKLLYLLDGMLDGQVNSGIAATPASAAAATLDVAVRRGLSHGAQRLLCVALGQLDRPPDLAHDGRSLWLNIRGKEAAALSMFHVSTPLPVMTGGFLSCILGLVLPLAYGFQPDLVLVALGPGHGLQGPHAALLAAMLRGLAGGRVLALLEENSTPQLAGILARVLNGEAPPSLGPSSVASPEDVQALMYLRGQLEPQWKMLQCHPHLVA
Kind of series: Inhibition of human HDAC10 using Boc-Lys (tri-fluoroacetyl)-AMC as substrate incubated for 1 hr followed by substrate addition and further incubated for 2 hrs by fluorescence assay.

In another series the target is T4, Histone deacetylase 11 (Homo sapiens, UniProt Q96DB2).
T4 sequence (Q96DB2 whole entry): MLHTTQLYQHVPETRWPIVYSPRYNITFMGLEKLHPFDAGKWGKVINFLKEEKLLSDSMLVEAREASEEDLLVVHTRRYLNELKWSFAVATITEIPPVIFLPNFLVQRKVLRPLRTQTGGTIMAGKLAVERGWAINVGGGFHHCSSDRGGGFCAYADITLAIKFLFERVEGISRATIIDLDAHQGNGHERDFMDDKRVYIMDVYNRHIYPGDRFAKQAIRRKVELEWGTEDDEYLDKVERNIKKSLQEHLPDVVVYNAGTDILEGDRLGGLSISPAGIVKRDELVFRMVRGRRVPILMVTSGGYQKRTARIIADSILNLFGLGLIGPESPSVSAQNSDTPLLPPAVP
Kind of series: Inhibition of human HDAC11 using Boc-Lys (tri-fluoroacetyl)-AMC as substrate incubated for 1 hr followed by substrate addition and further incubated for 2 hrs by fluorescence assay.

A short description of series [2]: Stability of compound in rat liver homogenate at 0.4 mg/mL measured after 24 hrs by HPLC analysis. In kind it is ADME, tissue-based. Particulars: tissue homogenate.

Histone deacetylase 9, sequence (Q9UKV0 whole entry): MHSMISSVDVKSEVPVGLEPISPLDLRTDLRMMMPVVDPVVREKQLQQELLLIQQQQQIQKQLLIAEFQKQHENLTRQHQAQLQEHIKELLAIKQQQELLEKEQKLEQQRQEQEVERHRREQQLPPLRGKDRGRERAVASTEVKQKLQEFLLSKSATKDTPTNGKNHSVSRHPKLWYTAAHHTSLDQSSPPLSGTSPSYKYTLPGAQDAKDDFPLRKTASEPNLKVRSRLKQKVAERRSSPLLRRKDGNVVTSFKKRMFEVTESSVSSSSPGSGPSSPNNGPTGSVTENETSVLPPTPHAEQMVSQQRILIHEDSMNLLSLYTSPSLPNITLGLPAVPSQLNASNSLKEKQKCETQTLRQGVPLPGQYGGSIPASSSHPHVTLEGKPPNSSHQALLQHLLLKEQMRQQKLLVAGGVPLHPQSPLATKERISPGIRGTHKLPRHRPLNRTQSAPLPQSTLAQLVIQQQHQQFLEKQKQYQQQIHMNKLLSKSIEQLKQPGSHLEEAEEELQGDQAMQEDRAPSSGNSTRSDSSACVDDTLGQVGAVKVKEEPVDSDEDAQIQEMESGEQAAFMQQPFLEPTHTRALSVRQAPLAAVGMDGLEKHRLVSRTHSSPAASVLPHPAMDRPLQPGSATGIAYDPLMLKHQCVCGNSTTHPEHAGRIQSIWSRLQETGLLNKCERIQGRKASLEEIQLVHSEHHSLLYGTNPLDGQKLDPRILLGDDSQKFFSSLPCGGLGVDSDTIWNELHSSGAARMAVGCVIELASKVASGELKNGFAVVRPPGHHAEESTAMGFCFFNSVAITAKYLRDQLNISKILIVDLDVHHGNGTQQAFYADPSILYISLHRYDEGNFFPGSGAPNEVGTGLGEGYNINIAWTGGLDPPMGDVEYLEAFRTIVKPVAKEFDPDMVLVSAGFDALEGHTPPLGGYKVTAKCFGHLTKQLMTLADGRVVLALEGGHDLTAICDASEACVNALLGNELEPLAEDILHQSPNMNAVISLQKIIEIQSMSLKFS
Histone deacetylase 3, sequence (O15379 whole entry): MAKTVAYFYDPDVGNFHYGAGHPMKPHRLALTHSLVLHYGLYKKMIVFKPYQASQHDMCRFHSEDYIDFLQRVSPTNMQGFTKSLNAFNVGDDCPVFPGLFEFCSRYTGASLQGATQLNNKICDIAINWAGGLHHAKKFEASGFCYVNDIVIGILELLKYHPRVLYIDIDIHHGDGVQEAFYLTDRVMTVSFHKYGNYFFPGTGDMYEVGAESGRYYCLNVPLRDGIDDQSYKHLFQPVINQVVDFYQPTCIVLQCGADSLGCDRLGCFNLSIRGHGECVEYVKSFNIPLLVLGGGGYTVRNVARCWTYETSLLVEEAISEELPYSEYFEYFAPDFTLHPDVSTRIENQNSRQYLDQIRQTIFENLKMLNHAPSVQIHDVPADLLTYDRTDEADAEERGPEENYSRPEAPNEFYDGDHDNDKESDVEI

A word on the IC50: it is the point on the concentration scale where inhibition reaches its midpoint. A higher IC50 goes with a need for much substance. Turning to `CCCNNC(=O)c1ccc(CNC(=O)[C@H](CC(C)C)NC(=O)[C@@H](O)[C@H](N)Cc2ccccc2)cc1.Cl`, the half-maximal inhibitory concentration (IC50) at Aminopeptidase N is 530 nM; at Histone deacetylase 3, 20 nM; against Histone deacetylase 8, 4650 nM; against Histone deacetylase 9, more than 10000 nM; in series [1], more than 10000 nM; on Histone deacetylase 11, 1240 nM. Besides, the Stability result in series [2] was “Stable”.
